Where two headings read alike, the source gives them in different places.
Key:
Caco-2 cells [1] = assay: Flowcytometric cell cycle analysis, Caco-2; type: cell-based, human; conditions: sorbinil 20 μM
Protocol: The Caco-2 and A549 cells were grown separately in 6 well plates at a density of approximately 1.5×10^5 cells/well. Growth-arrested Caco-2 cells were pre-incubated with or without sorbinil 20 μM or carrier for 24 h and then stimulated with either 10 ng/ml BFGF or PDGF for another 24 h. After 24 hrs A549 cells were incubated with or without sorbinil at different concentrations for another 24 h.
The Caco-2 and A549 cells were then washed with PBS and harvested by trypsinization. Cellular DNA was stained with low and high salt solutions. Briefly, cells were resuspended in 250 μl of solution A, low salt stain, containing polyetheleneglycol (30 mg/ml), propidium iodide (0.05 mg/ml), triton-x-100 (1 μl/ml), sodium citrate 4 mM, RNAse A 10 μg/ml and incubated at 37° C. for 20 min followed by the addition of 250 μl of solution B, high salt stain containing 400 mM NaCl instead of 4 mM sodium citrate in solution A, and incubated overnight at 4° C. Cell cycle analysis was performed with a minimum of 10,000 events per analysis by using FACScan flow cytometer (Becton, Dickinson and Co., San Jose, Calif., USA).

HT29 cells [2] = assay: PGE2 assay in HT29 cells; type: cell-based; conditions: inhibitor alone
Protocol: Caco-2 cells were plated in 6 well plates at a density of 2×10^5 cells/well. After 24 hours, the medium was replaced with fresh medium containing 0.1% serum with or without, sorbinil (20 μM) followed by treatment with either 10 ng/ml BFGF or PDGF, for another 24 h. HT29 cells were plated in 6 well plate at a density of 2×10^5 cells/well. After 24 hours, medium was replaced with serum-free medium with or without, sorbinil or zopolrestat (20 μM) followed by treatment with either EGF (5 ng/ml) or BFGF (10 ng/ml) for another 24 h. The medium from each cell lines was collected from each well and analyzed for PGE2 by using an Enzyme Immuno Assay kit according to the manufacturer's instructions (Cayman Chemical Co., Inc.).
Briefly, 50 μl of diluted standard/sample were pipetted into a pre-coated goat polyclonal anti-mouse IgG 96-well plate. Aliquots (50 μl) of a PGE2 monoclonal antibody and PGE2 acetylcholine esterase (AchE) conjugate, (PGE2 tracer) were added to each well and allowed to incubate at 4° C. for 24 h. After incubation, the wells were washed five times with wash buffer containing 0.05% Tween-20, followed by the addition of 200 μl of Ellman's reagent containing acetylthiocholine and 5,5′-dithio-bis-(2-nitrobenzoic acid). Samples were read after 60 min at 412 nm with an ELISA reader. […]

Caco-2 cells [3] = assay: Western blot of Cox-1 and Cox-2 in Caco-2 cells; type: cell-based, human
Protocol: (§1) To examine expression of any of Cox-1, Cox-2, phospho-PKC-2, GAPDH, E2F1, Cyclin D1, Cyclin E, and iNOS proteins, Western blot analyses were carried by known methods (15). Equal amounts of protein from cell extracts were subjected to 12% SDS-PAGE followed by transfer of proteins to nitrocellulose filters, probing with the indicated antibodies, and the antigen-antibody complex was detected by enhanced chemiluminescence (Pierce, Piscataway, N.J., USA).

A549 cells [4] = assay: Western blot of cell cycle regulatory proteins in A549 cells; type: cell-based, human; conditions: various concentrations
Protocol: as §1

mice = conditions: for survival: sorbinil pre-treatment
Protocol: Therefore increasing doses of LPS was administered to determine the dose at which fifty percent lethality occurred (LD50) in the presence or absence of aldose reductase inhibitor (ARI) in order to determine if ARI protected mice for LPS-induced death (FIG. 7D).

Caco-2 cells [5] = assay: Membrane-bound PKC activity in Caco-2 cells; type: cell-based, human
Protocol: PKC activity was measured using the Promega-Sigma TECT PKC assay system as described earlier (15). Briefly, aliquots of the reaction mixture (25 mM Tris-Hcl pH 7.5, 1.6 mg/mL phosphatidylserine, 0.16 mg/mL diacylglycerol, and 50 mM MgCl2) were mixed with […] (3,000 Ci/mmol, 10 μCi/μL) and incubated at 30° C. for 10 min. To stop the reaction, 7.5 M guanidine hydrochloride were added and the phosphorylated peptide was separated on binding paper. The extent of phosphorylation was detected by measuring radioactivity retained on the paper.

Caco-2 cells [6] = assay: Reactive oxygen species in Caco-2 cells (DCFH-DA); type: cell-based, human; conditions: 20 μM, FGF or PDGF 10 ng/ml 60 min
Protocol: Caco-2 cells were plated in a 24-well plate at a density of 1.5×10^4 cells/well in DMEM and then serum-starved at 60-70% confluence in the absence and presence of 20 μM sorbinil or tolrestat for overnight in phenol red-free DMEM supplemented with 0.1% FBS. Cells were then pre-incubated for 30 min with the ROS-sensitive fluorophore 2′,7′-dichlorofluorescein diacetate (DCFH-DA), which is taken up and oxidized to the fluorescent dichlorofluorescein by intracellular ROS. After incubation with DCFH-DA, the cells were exposed to FGF or PDGF 10 ng/ml for 60 min and fluorescence was measured with a CytoFluorII fluorescence plate reader (PerSeptive Biosystems, Inc., Framingham, Mass.) at excitation of 485 nm and emission of 528 nm.

Caco-2 cells [7] = assay: Western blot of phospho-PKC-b2 in Caco-2 cells; type: cell-based, human; conditions: BFGF or PDGF
Protocol: as §1

C57BL/6 mice = assay: LPS-induced cardiac dysfunction, M-mode echocardiography; type: in vivo, mouse
A549 cells [8] = assay: Western blot of Cox-2 and iNOS in A549 cells; type: cell-based, human; conditions: concentration dependent
Protocol: as §1

HT29 cells [9] = assay: HT29 cell proliferation, MTT assay; type: cell-based; conditions: inhibitor alone
Protocol: HT29 cells were grown to confluence in McCoy's medium and harvested and plated 2,500 per well in a 96-well plate. Subconfluent cells were growth arrested in 0.1% FBS with or without AR inhibitor sorbinil or zopolrestat (20 μM). After 24 hours, EGF (5 ng/ml) or BFGF (10 ng/ml) was added to the medium and the cells were incubated for another 24 hours. Cells incubated with the AR inhibitors alone served as control. Cell viability was determined by an MTT assay.

(S)-6-fluorospiro[chroman-4,4′-imidazolidine]-2,5′-dione [sorbinil]
percentage of cells in G1 (Caco-2 cells [1]; Control): 54.97%
percentage of cells in G2 (Caco-2 cells [1]; Control): 5.32%
percentage of cells in S (Caco-2 cells [1]; Control): 39.71%
percentage of cells in G1 (Caco-2 cells [1]; FGF): 36.31%
percentage of cells in G2 (Caco-2 cells [1]; FGF): 1.54%
percentage of cells in S (Caco-2 cells [1]; FGF): 52.15%
percentage of cells in G1 (Caco-2 cells [1]; PDGF): 36.18%
percentage of cells in G2 (Caco-2 cells [1]; PDGF): 12.10%
percentage of cells in S (Caco-2 cells [1]; PDGF): 51.71%
constitutive levels of PGE2 (HT29 cells [2]): did not inhibit
growth factor-induced Cox-2 protein (Caco-2 cells [3]): attenuated
levels of constitutive Cox-1 protein (Caco-2 cells [3]): not affected
GS-DHN-induced Cox-2 expression (Caco-2 cells [3]; sorbinil 24 h, GS-DHN-ester 24 h): had no effect
HNE and GS-HNE-induced Cox-2 expression (Caco-2 cells [3]; sorbinil 24 h, aldehydes 24 h): significantly prevented
E2F-1, Cyclin E and Cyclin D1 expression (A549 cells [4]): significant inhibition
LD50 for LPS with sorbinil post-treatment (mice; sorbinil 2 h after LPS, 48 h survival): 20 mg/kg
LD50 for LPS with sorbinil pre-treatment (mice; sorbinil 24 h before LPS, 48 h survival): 24 mg/kg
survival (mice; LPS 14 mg/kg): approximately 90%
survival (mice; LPS 24 mg/kg): over 60%
growth factor-induced increase in membrane-bound PKC activity (Caco-2 cells [5]): significantly prevented
total PKC activity (Caco-2 cells [5]; sorbinil by itself): did not alter
growth factor-induced increase in ROS (Caco-2 cells [6]): inhibited
attenuation of increase in PKC-β2 phosphorylation (Caco-2 cells [7]): > 70%
percent fractional shortening (FS %) (C57BL/6 mice; at 8 h after LPS, pretreated with sorbinil): recovered significantly
general activity level of LPS-exposed mice (C57BL/6 mice; within 24 h): normal grooming and other activities
Cox-2 and iNOS expression (A549 cells [8]): inhibit
HT29 cells proliferation (HT29 cells [9]): did not cause any effect

— US8551997B2, “Structural-based inhibitors of the glutathione binding site in aldose reductase, methods of screening therefor and methods of use” (The Board of Regents of the University of Texas System, priority 2004, dated 2013)
